Measurements taken from patent publication US20240189278A1, “NOVEL COMPOUNDS AND METHODS FOR INCREASING KLOTHO GENE EXPRESSION” (Klotho Therapeutics, Inc., priority 2017, published 2024).

Assays:
Type in all cases: in vivo, mouse
[1] = system: aged mice; assay: Blood pressure by VPR tail-cuff method in aged mice
Description: (§1) Animal study protocols. This example was performed according to the guide lines of the National Institute of Health on the care and use of laboratory animals and approved by the institutional Animal Care and Use Committee of University of Oklahoma Health Science Center. AU mice were housed in cages at room temperature (2S±PC) and were provided with Purina laboratory chow No 5001) and tap Water and lithium. 6 adult mice (12 months) and 20 old mice (24-26 months) mice were next in this study. The old (aged) mice were randomly divided into three subgroups and each group had 6 or 7 mice. One subgroup received compound H (10 mg/kg/day1, IP, Enamine LLC, Monmouth Jct., NJ) and one group received an equal volume of DMSO (dimethyl sulfoxide, 5%) and served as a control. The third group received no treatment Blood pressure was measured before and after treatment with the active agent at 1 week and 2 week. Pulse wave velocity (PWV) was measured after 2 weeks treatment with active agent all animals were sacrificed and perfused transcardially with PBS under deep anesthesia (ketamine xylazine, 90/10 mg, IP). The aortas were then quickly removed, washed and cut into pieces for subsequent analyses.
Measurement of Blood Pressure: Blood pressure was measured by the volume-pressure recording (VPR) tail-cuff method with slight (28° C.) but not heating of the tail using it CODA none-invasive blood pressure monitoring system (Kent Scientific). This method of measurement has been validated by using a telemetry system. Animals were gently handled and trained for the VPR tail-cuff measurement to minimize handling stress. No signs of stress were observed during BP measurements. The operator was also strictly trained for the measurement procedure. At least 20 stable cycles data were obtained for the result analysis for each measurement.

[2] = system: secreted Klotho; assay: Western blot of secreted Klotho in kidney and serum of aged mice
[3] = system: MMP9; assay: MMP9 activity by zymogram PAGE, aortas of aged mice; conditions: zymography
Description: as §1, with “The aortas were then quickly removed, washed and cut into pieces for subsequent analyses.” left out
Measurements for MMP2 and MMP9 Activity. MMP2 and MMP9 activity were measured by Zymogram PAGE (Bio˜-Rad). Briefly Lysates from thoracic aorta were quantified using BCA assay (Pierce) and prepared under non-reducing, non-denaturing conditions. […]

[4] = 10 mg/kg/day IP, 2 weeks treatment

For `O=C(Nc1ccccc1Cl)c1c[nH]c2ccccc12` [active agent, N-(2-chlorophenyl)-Ul-indde-3-carboxamide], the Diastolic blood pressure [1, 4] was “decreased”, the Mean blood pressure [1, 4] was “decreased” and the Pulse pressure [1, 4] was “decreased”. The Systolic blood pressure [1, 4] was “decreased”, the Blood pressure ([1]; after 1 week of treatment) was “decreased” and the “Secreted Klotho protein expression” value ([2]; kidney of 24-26 month-old mice) was “significantly increased”. The “Circulating levels of secreted Klotho” value ([2]; serum of aged mice) was “markedly increased” and the MMP9 activity [3] was “decreased”.
